Measurements from EP3390415B1, “(R)- AND (S)-1-(3-(3-N,N-DIMETHYLAMINOCARBONYL)PHENOXYL-4-NITROPHENYL)-1-ETHYL-N,N'-BIS (ETHYLENE)PHOSPHORAMIDATE, COMPOSITIONS AND METHODS FOR THEIR USE AND PREPARATION” (OBI PHARMA, INC., priority 2015, dated 2017).
Like-named read-outs stand apart in the source and are kept apart here.

How the values were obtained:
C3A = assay: In vitro human tumor cell line cytotoxicity assay; format: cell-based; settings: for IC50: Homo sapiens
HCCC9810 = assay: In vitro human tumor cell line cytotoxicity assay; format: cell-based; settings: for IC50: Homo sapiens
PLCPRF5 = assay: In vitro human tumor cell line cytotoxicity assay; format: cell-based; settings: for IC50: Homo sapiens
SNU-387 = assay: In vitro human tumor cell line cytotoxicity assay; format: cell-based; settings: for IC50: Homo sapiens
LIXC012 = assay: In vitro human tumor cell line cytotoxicity assay; format: cell-based; settings: for IC50: Homo sapiens
ATN-1 = assay: In vitro human tumor cell line cytotoxicity assay; format: cell-based; settings: read-out: RelIC50
Description: (§1) TH 2870, TH 3423 and TH 3424 was also tested in different cancer cell lines using the materials and procedures as follows. 10* cell lysate buffer (cell signaling technology, Cat. No.9803); Protease Inhibitor Cocktail for Mammalian Tissues (Sigma, Cat. No.P8340); Phosphatase Inhibitor Cocktails for Serine/Threonine Phosphatases and L-Isozymes of Alkaline Phosphatases (Sigma, Cat. No.P0044); Phosphatase Inhibitor Cocktails for Tyrosine Protein Phosphatases, Acid and Alkaline Phosphatases (Sigma, Cat. No.P5726); BCA kit (Thermo, Cat. No.23225); Primary antibody, mouse monoclonal AKR1C3 antibody (clone NP6.G6.A6; Sigma-Aldrich); Primary antibody, α-tubulin (clone B-5-1-2; Sigma-Aldrich); Secondary antibody, Goat-anti-Mouse IgG HRP conjugated (A4416; Sigma-Aldrich) were used. Cells were passaged two generations in good condition and digested. The appropriate number of cells were inoculated in 6-cm cell culture dishes, and incubated at 37°C, 5% CO2 overnight. When the cells were grown to 80% density, the dish was removed from incubator. The medium was aspirated, washed twice with ice-cold PBS, and residual PBS was removed. An appropriate volume of ice-cold 1* cell lysate was added and incubated on ice for 10 minutes. Cell lysate was transferred to microfuge tubes chilled in ice, 4 °C, 12,000 rpm and centrifuged for 15 minutes. Supernatant was transferred into another microcentrifuge tube. Cell lysates were diluted by a 10* cell lysates, and add Protease Inhibitor Cocktail for Mammalian Tissues (Sigma, # P8340), Phosphatase Inhibitor Cocktails for Serine / Threonine Phosphatases and L-Isozymes of Alkaline Phosphatases, Phosphatase Inhibitor Cocktails for Tyrosine Protein Phosphatases, Acid and Alkaline Phosphatases. The BCA protein quantification kit for protein quantification was used with 1* cell lysate to dilute the cell lysate to the same concentration. Corresponding samples were added on 5* SDS-loading buffer, heated to 85 °C for 10 minutes, and centrifuged briefly. The samples were saved at -20 °C or used directly for protein electrophoresis. Those samples were electrophoresed according to standard practice, transferred to a membrane, the primary antibodies and then secondary antibody were applied according to the manufacturer's instructions. Odyssey infrared laser imaging system was used to scan signals.
(§2) The results are shown below in Figs. 3 and 4 and listed in the following tables: Table: TH 2870, TH 3423 and TH 3424 sensitivity in liver, prostate, esophageal cancer and leukemia cell lines

CCRF-CEM = assay: In vitro human tumor cell line cytotoxicity assay; format: cell-based; settings: read-out: RelIC50
Description: as §1, §2

HL-60 = assay: In vitro human tumor cell line cytotoxicity assay; format: cell-based; settings: read-out: RelIC50
Description: as §1, §2

KYSE 510 = assay: In vitro human tumor cell line cytotoxicity assay; format: cell-based; settings: read-out: RelIC50
Description: as §1, §2

Mono-Mac-6_ = assay: In vitro human tumor cell line cytotoxicity assay; format: cell-based; settings: read-out: RelIC50
Description: as §1, §2

OE 33 = assay: In vitro human tumor cell line cytotoxicity assay; format: cell-based; settings: OE33, read-out: RelIC50
Description: as §1, §2

P116 = assay: In vitro human tumor cell line cytotoxicity assay; format: cell-based; settings: read-out: RelIC50
Description: as §1, §2

PF-382 = assay: In vitro human tumor cell line cytotoxicity assay; format: cell-based; settings: read-out: RelIC50
Description: as §1, §2

Reh 3 = assay: In vitro human tumor cell line cytotoxicity assay; format: cell-based; settings: read-out: RelIC50
Description: as §1, §2

SUP-T1 = assay: In vitro human tumor cell line cytotoxicity assay; format: cell-based; settings: read-out: RelIC50
Description: as §1, §2

TE-11 = assay: In vitro human tumor cell line cytotoxicity assay; format: cell-based; settings: read-out: RelIC50
Description: as §1, §2

TE-15 = assay: In vitro human tumor cell line cytotoxicity assay; format: cell-based; settings: read-out: RelIC50
Description: as §1, §2

TE-5 = assay: In vitro human tumor cell line cytotoxicity assay; format: cell-based; settings: read-out: RelIC50
Description: as §1, §2

THP-1_ = assay: In vitro human tumor cell line cytotoxicity assay; format: cell-based; settings: read-out: RelIC50
Description: as §1, §2

OE 21 = assay: In vitro human tumor cell line cytotoxicity assay; format: cell-based; settings: OE21, read-out: RelIC50
T.T = assay: In vitro human tumor cell line cytotoxicity assay; format: cell-based; settings: TT, read-out: RelIC50
ECa-109 = assay: In vitro human tumor cell line cytotoxicity assay; format: cell-based; settings: read-out: RelIC50
TE-4 = assay: In vitro human tumor cell line cytotoxicity assay; format: cell-based; settings: read-out: RelIC50
COLO680N = assay: In vitro human tumor cell line cytotoxicity assay; format: cell-based; settings: COLO-680N, read-out: RelIC50
KYSE 270 = assay: In vitro human tumor cell line cytotoxicity assay; format: cell-based; settings: read-out: RelIC50
MOLT-4 = assay: In vitro human tumor cell line cytotoxicity assay; format: cell-based; settings: read-out: RelIC50
Jurkat = assay: In vitro human tumor cell line cytotoxicity assay; format: cell-based; settings: read-out: RelIC50
NOMO-1 = assay: In vitro human tumor cell line cytotoxicity assay; format: cell-based; settings: read-out: RelIC50
GR-ST = assay: In vitro human tumor cell line cytotoxicity assay; format: cell-based; settings: read-out: RelIC50
KG-1 = assay: In vitro human tumor cell line cytotoxicity assay; format: cell-based; settings: read-out: RelIC50
HEL = assay: In vitro human tumor cell line cytotoxicity assay; format: cell-based; settings: read-out: RelIC50
[1] = Body weight and toxicity in the orthotopic liver cancer mouse model; format: in vivo, athymic nude mice; settings: intra-peritoneal, low or high dose (2.5 and 5 mg/kg)

C[C@H](OP(=O)(N1CC1)N1CC1)c1ccc([N+](=O)[O-])c(Oc2cccc(C(=O)N(C)C)c2)c1 (single isomer, unassigned) [TH3424]
Max Inhibition% (C3A): 98.7% | Min Inhibition% (C3A): -2.1% | IC50 (C3A; read-out: AbsIC50): 9.3 nM | IC50 (C3A; read-out: RelIC50): 4.1 nM | Max Inhibition% (HCCC9810): 95.4% | Min Inhibition% (HCCC9810): 2.1% | IC50 (HCCC9810; read-out: AbsIC50): 13.9 nM | IC50 (HCCC9810; read-out: RelIC50): 13.4 nM | Max Inhibition% (PLCPRF5): 85.2% | Min Inhibition% (PLCPRF5): 1.4% | IC50 (PLCPRF5; PLC-PRF-5, read-out: AbsIC50): 111 nM | IC50 (PLCPRF5; PLC-PRF-5, read-out: RelIC50): 128 nM | Max Inhibition% (SNU-387): 99.3% | Min Inhibition% (SNU-387): -14.8% | IC50 (SNU-387; read-out: AbsIC50): 70.1 nM | IC50 (SNU-387; read-out: RelIC50): 58.7 nM | Max Inhibition% (LIXC012): 82.8% | Min Inhibition% (LIXC012): 4.1% | IC50 (LIXC012; read-out: AbsIC50): 17.5 nM | IC50 (LIXC012; read-out: RelIC50): 11.2 nM | IC50 (ATN-1): 29.8 nM | IC50 (CCRF-CEM): 3.7 nM | IC50 (HL-60): 3 nM | IC50 (KYSE 510): 180 nM | IC50 (Mono-Mac-6_): > 1000 nM | IC50 (OE 33): 84 nM | IC50 (P116): 84 nM | IC50 (PF-382): 15 nM | IC50 (Reh 3): 3 nM | IC50 (SUP-T1): 3 nM | IC50 (TE-11): 2.7 nM | IC50 (TE-15): 2.9 nM | IC50 (TE-5): 33 nM | IC50 (THP-1_): > 1000 nM | IC50 (OE 21): 5.2 nM | IC50 (T.T): 6 nM | IC50 (ECa-109): 17 nM | IC50 (TE-4): 9.9 nM | IC50 (COLO680N): 66 nM | IC50 (KYSE 270): 270 nM | IC50 (MOLT-4): 10 nM | IC50 (Jurkat): 40 nM | IC50 (NOMO-1): 11 nM | IC50 (GR-ST): 99 nM | IC50 (KG-1): 15.3 nM | IC50 (HEL): 224 nM | toxicity to the experimental mice [1]: no obvious toxicity | toxicity to the experimental mice ([1]; listed as TH2870-2): no obvious acute toxicity
